For eight compounds, IC50 and MIC results are on record in ChEMBL document CHEMBL1157530, “Cytotoxic and antibacterial sesquiterpenes from Thespesia populnea” (J Nat Prod, 2008).

Assay [1] concerns MCF7. As to the kind of experiment: Cytotoxicity against human MCF7 cells by SRB assay. It counts as functional, cell-based.
In assay [2] the test system is HeLa. The experiment in a line: Cytotoxicity against human HeLa cells by SRB assay. It counts as functional, cell-based. A general note: Sulforhodamine B stains cellular protein and so reports cell mass.
In assay [3] the test system is HT-29. The experiment in a line: Cytotoxicity against human HT29 cells by SRB assay. It counts as functional, cell-based.
The test system of assay [4] is KB. The experiment in a line: Cytotoxicity against human KB cells by SRB assay. It counts as functional, cell-based.
In assay [5] the test system is Bacillus subtilis. As to the kind of experiment: Antibacterial activity against Bacillus subtilis. It counts as functional.
The test system of assay [6] is Staphylococcus aureus. As to the kind of experiment: Antibacterial activity against Staphylococcus aureus TISTR517. It counts as functional.
The test system of assay [7] is Enterococcus faecalis. The experiment in a line: Antibacterial activity against Enterococcus faecalis. It counts as functional.

In brackets after ≈: the same amount, converted by molar mass. Where only a bound is given, the exact number is not on record here.

On to `Cc1cc2c(c(O)c1O)[C@H](C)CC1=C2[C@@H](C)COC1(C)C` [POPULENE D], for which the IC50 in assay [1] is 1.85 µg/mL (≈ 6.41 µM); in assay [2] it was 0.95 µg/mL (≈ 3.29 µM); in assay [3], 2.37 µg/mL (≈ 8.22 µM); in assay [4] it was 3.1 µg/mL (≈ 10.7 µM). Further, the lowest concentration to inhibit growth in assay [5] (MIC) was 4.69 µg/mL (≈ 16.3 µM).

As to `CC1=C2OCC(C)c3ccc(C)c(c32)C(=O)C1=O` (configuration not stated) [MANSONONE E], the IC50 in assay [1] amounted to 0.05 µg/mL (≈ 0.206 µM); in assay [2] it was 0.55 µg/mL (≈ 2.27 µM); in assay [3] it was 0.18 µg/mL (≈ 0.743 µM); in assay [4] it was 0.4 µg/mL (≈ 1.65 µM). In assay [5], this compound yielded an MIC of 4.69 µg/mL (≈ 19.4 µM).

Take `COc1c(O)c(C=O)c2c(O)c(-c3c(C)cc4c(C(C)C)c(OC)c(O)c(C=O)c4c3O)c(C)cc2c1C(C)C` [6,6'-METHOXYGOSSYPOL]: the IC50 in assay [1] is 4 µg/mL (≈ 7.32 µM); in assay [2], > 5 µg/mL; in assay [3], 3 µg/mL (≈ 5.49 µM); in assay [4] it was > 5 µg/mL. Moreover, the results for the MIC in assay [5], in assay [6] and in assay [7] were 2.34 µg/mL (≈ 4.28 µM), 4.69 µg/mL (≈ 8.58 µM) and 1.17 µg/mL (≈ 2.14 µM), respectively.

Turning to `CC1=Cc2c(c(C)cc3c2C(C)COC3(C)C)C(=O)C1=O` (configuration not stated) [POPULENE C], the IC50 came out at 2.35 µg/mL (≈ 8.26 µM) in assay [1], 3.4 µg/mL (≈ 12 µM) in assay [2], 2.9 µg/mL (≈ 10.2 µM) in assay [3] and 3 µg/mL (≈ 10.6 µM) in assay [4]. The MIC was 4.69 µg/mL (≈ 16.5 µM) in assay [5] and > 10 µg/mL in assay [6].

On to `Cc1cc2c(C(C)C)ccc(C)c2cc1O`, for which the IC50 in assay [1], in assay [2], in assay [3] and in assay [4] was > 5 µg/mL each time. In addition, in assay [5], the MIC turned out to be 0.59 µg/mL (≈ 2.75 µM).

In the case of `CC1=CC2=C(C(C)C)C(=O)CC(C)C2=C(O)C1=O` (configuration not stated) [MANSONONE S], the IC50 in assay [1], in assay [2], in assay [3] and in assay [4] was > 5 µg/mL in each case.

Turning to `Cc1cc2c(C(C)C)c(O)c(O)c(C=O)c2c(O)c1-c1c(C)cc2c(C(C)C)c(O)c(O)c(C=O)c2c1O` [GOSSYPOL], the IC50 was 0.08 µg/mL (≈ 0.154 µM) in assay [2], > 5 µg/mL in assay [3] and 0.04 µg/mL (≈ 0.0771 µM) in assay [4]. In addition, the MIC in assay [5] and in assay [6] was 1.17 µg/mL (≈ 2.26 µM) each time.

For `CC1=Cc2c(c(C)cc3c2C(C)CO3)C(=O)C1=O` (configuration not stated) [MANSONONE D], the IC50 in assay [1] is 0.8 µg/mL (≈ 3.3 µM); in assay [2], 2.8 µg/mL (≈ 11.6 µM); in assay [3], > 5 µg/mL; in assay [4], 4.9 µg/mL (≈ 20.2 µM). Besides, the MIC in assay [5] was 2.34 µg/mL (≈ 9.66 µM).

What is called IC50 is the point on the concentration scale where inhibition reaches its midpoint. High values mean weaker potency, low ones greater potency. As usually defined, the MIC is the smallest concentration in the dilution series that meets the test's criterion for growth inhibition. Read a high MIC as a need for much substance.
